{"source": "patent US10143681B2", "about": "“Factor XIa inhibitors” (MERCK SHARP & DOHME CORP., priority 2016, dated 2018)", "molecular_target": "human Factor XIa (Homo sapiens (Human), UniProt P03951)", "sequence (P03951 388-625)": "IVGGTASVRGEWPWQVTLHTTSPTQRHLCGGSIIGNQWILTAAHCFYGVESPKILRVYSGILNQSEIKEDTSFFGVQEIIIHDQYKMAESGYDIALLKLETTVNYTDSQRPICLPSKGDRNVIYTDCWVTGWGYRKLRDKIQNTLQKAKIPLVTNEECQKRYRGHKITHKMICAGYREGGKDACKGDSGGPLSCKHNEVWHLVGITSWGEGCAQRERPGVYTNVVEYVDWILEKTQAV", "sequence (P03951 19-387 partner)": "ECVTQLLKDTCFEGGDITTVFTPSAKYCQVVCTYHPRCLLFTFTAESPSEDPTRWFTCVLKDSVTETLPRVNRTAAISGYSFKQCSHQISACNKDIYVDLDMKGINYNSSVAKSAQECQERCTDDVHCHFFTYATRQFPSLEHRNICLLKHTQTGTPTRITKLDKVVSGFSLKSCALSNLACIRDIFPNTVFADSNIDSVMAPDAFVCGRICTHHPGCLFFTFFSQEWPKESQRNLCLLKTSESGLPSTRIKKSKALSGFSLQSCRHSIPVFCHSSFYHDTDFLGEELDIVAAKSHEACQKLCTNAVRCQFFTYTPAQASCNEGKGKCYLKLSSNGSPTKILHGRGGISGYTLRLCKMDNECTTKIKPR", "assay": "Factor XIa Assay", "format": "biochemical", "details": "for IC50: human Factor XIa 0.04 nM, 30 min pre-incubation at 25° C., substrate GPR-AFC, read-out: FXIa IC50; for inhibition at 1 µM: read-out: FXIa % Inh. @ 1000 nM", "method": "The effectiveness of a compound of the present invention as an inhibitor of Coagulation Factor XIa can be determined using a relevant purified serine protease, and an appropriate synthetic substrate. The rate of hydrolysis of the chromogenic or fluorogenic substrate by the relevant serine protease was measured both in the absence and presence of compounds of the present invention. Assays were conducted at room temperature or at 37° C. […] A decrease in the rate of fluorescence change in the presence of inhibitor is indicative of enzyme inhibition. Such methods are known to one skilled in the art. The results of this assay are expressed as the half-maximal inhibitory concentrations (IC50), or the inhibitory constant, Ki.\nCompounds were pre-incubated for 30 minutes at 25° C. with human (0.04 nM) Factor XIa in 50 mM HEPES buffer with 150 mM sodium chloride, 5 mM calcium chloride, 0.1% PEG 8000, pH 7.4. Factor XIa enzymatic activity was determined by addition of the substrate glycine-proline-arginine-7-amido-4-trifluoromethylcoumarin (GPR-AFC) and measurement of the fluorescence at 400/505 nm after a 60 minute incubation at 25° C. The % inhibition for each data point was calculated from the data and analyzed using the log (inhibitor) vs. response four parameters equation to determine the half-maximal inhibitory concentrations (IC50). The IC50 were converted to equilibrium inhibitory constants (Ki) using the Cheng-Prusoff equation.", "data": [{"smiles": "O=C(O)c1ccc(NC(=O)C(CC2CC2)c2ccc(-c3c(C(F)F)ccc(Cl)c3F)c[n+]2[O-])cc1F", "note": "(single isomer, unassigned) [Example 117, 2-(1-((4-carboxy-3-fluorophenyl)amino)-3-cyclopropyl-1-oxopropan-2-yl)-5-(3-chloro-6-(difluoromethyl)-2-fluorophenyl)pyridine 1-oxide]", "values": [{"measurement": "IC50", "result": 58.4, "unit": "nM"}]}, {"smiles": "O=C(O)c1ccc(NC(=O)C(CC23CC(C2)C3)c2ccc(-c3c(C(F)F)ccc(Cl)c3F)c[n+]2[O-])cc1F", "note": "(single isomer, unassigned) [Example 123, 2-(3-(bicyclo[1.1.1]pentan-1-yl)-1-((4-carboxy-3-fluorophenyl)amino)-1-oxopropan-2-yl)-5-(3-chloro-6-(difluoromethyl)-2-fluorophenyl)pyridine 1-oxide]", "values": [{"measurement": "IC50", "result": 24.7, "unit": "nM"}]}, {"smiles": "O=C(O)c1ccc(NC(=O)C(CC2CC(F)(F)C2)c2ccc(-c3c(OC(F)F)ccc(Cl)c3F)c[n+]2[O-])cc1", "note": "(racemic) [Example 49, (S)- and (R)-2-(1-((4-carboxyphenyl)amino)-3-(3,3-difluorocyclobutyl)-1-oxopropan-2-yl)-5-(3-chloro-6-(difluoromethoxy)-2-fluorophenyl)pyridine 1-oxide]", "values": [{"measurement": "inhibition at 1 µM", "setting": "@ 1000 nM compound", "result": 47, "unit": "%"}]}, {"smiles": "COC(=O)c1ccc(NC(=O)C(CC2CCC2)c2ccc(-c3c(C(F)F)ccc(Cl)c3F)c[n+]2[O-])cc1", "note": "(single isomer, unassigned) [Example 20, (S)- or (R)-methyl 4-[(2-{5-[3-chloro-6-(difluoromethyl)-2-fluorophenyl]-1-oxidopyridin-2-yl}-3-cyclobutylpropanoyl)amino]benzoate]", "values": [{"measurement": "inhibition at 1 µM", "setting": "@ 1000 nM compound", "result": 13, "unit": "%"}, {"measurement": "IC50", "result": "> 1000", "unit": "nM"}]}, {"smiles": "CC1CCC1CC(C(=O)Nc1ccc(C(=O)O)cc1)c1ccc(-c2c(OC(F)F)ccc(Cl)c2F)c[n+]1[O-]", "note": "(single isomer, unassigned) [Example 103, 2-(1-((4-carboxyphenyl)amino)-3-(2-methylcyclobutyl)-1-oxopropan-2-yl)-5-(3-chloro-6-(difluoromethoxy)-2-fluorophenyl)pyridine 1-oxide]", "values": [{"measurement": "IC50", "result": 153, "unit": "nM"}]}, {"smiles": "O=C(O)c1ccc(NC(=O)[C@@H](CC2CC2)c2ccc(-c3c(OCC4CC4)ccc(Cl)c3F)c[n+]2[O-])cc1", "note": "[Example 12, (S)-4-[(2-{5-[3-chloro-6-(cyclopropylmethoxy)-2-fluorophenyl]-1-oxidopyridin-2-yl}-3-cyclopropylpropanoyl)amino] benzoic acid]", "values": [{"measurement": "inhibition at 1 µM", "setting": "@ 1000 nM compound", "result": 35, "unit": "%"}, {"measurement": "IC50", "result": "> 1000", "unit": "nM"}]}, {"smiles": "Cc1cc(NC(=O)C(CC2CC2)c2ccc(-c3c(C(F)F)ccc(Cl)c3F)c[n+]2[O-])ccc1C(=O)O", "note": "(single isomer, unassigned) [Example 121, 2-(1-((4-carboxy-3-methylphenyl)amino)-3-cyclopropyl-1-oxopropan-2-yl)-5-(3-chloro-6-(difluoromethyl)-2-fluorophenyl)pyridine 1-oxide]", "values": [{"measurement": "IC50", "result": 620, "unit": "nM"}]}, {"smiles": "CCOC(=O)c1ccc(NC(=O)C(CC2CC2)c2ccc(-c3c(C(F)F)ccc(Cl)c3F)c[n+]2[O-])cc1", "note": "(single isomer, unassigned) [Example 115, 5-(3-chloro-6-(difluoromethyl)-2-fluorophenyl)-2-(3-cyclopropyl-1-((4-(ethoxycarbonyl)phenyl)amino)-1-oxopropan-2-yl)pyridine 1-oxide]", "values": [{"measurement": "inhibition at 1 µM", "setting": "@ 1000 nM compound", "result": 0, "unit": "%"}]}, {"smiles": "COc1ccc(Cl)c(F)c1-c1ccc(C(CC2CC2)C(=O)Nc2ccc(C(=O)O)cc2)[n+]([O-])c1", "note": "(single isomer, unassigned) [Example 11, (R)- or (S)-4-({2-[5-(3-chloro-2-fluoro-6-methoxyphenyl)-1-oxidopyridin-2-yl]-3-cyclopropylpropanoyl}amino) benzoic acid]", "values": [{"measurement": "IC50", "result": 36, "unit": "nM"}]}, {"smiles": "CC1CC1C[C@H](C(=O)Nc1ccc(C(=O)O)cc1)c1ccc(-c2c(C(F)F)ccc(Cl)c2F)c[n+]1[O-]", "note": "(single isomer, unassigned) [Example 61]", "values": [{"measurement": "IC50", "result": 55, "unit": "nM"}]}, {"smiles": "CCOC(=O)c1ccc(NC(=O)[C@H](CC2CCC2)c2ccc(-c3c(C(F)F)ccc(Cl)c3F)c[n+]2[O-])cc1", "note": "[Example 5, (R)-5-(3-chloro-6-(difluoromethyl)-2-fluorophenyl)-2-(3-cyclobutyl-1-((4-(ethoxycarbonyl)phenyl)amino)-1-oxopropan-2-yl)pyridine 1-oxide]", "values": [{"measurement": "IC50", "result": 166, "unit": "nM"}]}, {"smiles": "COC(=O)c1ccc(NC(=O)C(CC2CC2)c2ccc(-c3c(C(F)F)ccc(Cl)c3F)c[n+]2[O-])cc1", "note": "(single isomer, unassigned) [Example 113, 5-(3-chloro-6-(difluoromethyl)-2-fluorophenyl)-2-(3-cyclopropyl-1-((4-(methoxycarbonyl)phenyl)amino)-1-oxopropan-2-yl)pyridine 1-oxide]", "values": [{"measurement": "FXIa % Inh. @ 1000 nM", "setting": "@ 1000 nM compound", "result": 6, "unit": "%"}, {"measurement": "IC50", "result": 1000, "unit": "nM"}]}, {"smiles": "CC1(C)CC1CC(C(=O)Nc1ccc(C(=O)O)cc1)c1ccc(-c2c(OC(F)F)ccc(Cl)c2F)c[n+]1[O-]", "note": "(single isomer, unassigned) [Example 111, 2-(1-((4-carboxyphenyl)amino)-3-(2,2-dimethylcyclopropyl)-1-oxopropan-2-yl)-5-(3-chloro-6-(difluoromethoxy)-2-fluorophenyl)pyridine 1-oxide]", "values": [{"measurement": "IC50", "result": 157, "unit": "nM"}]}, {"smiles": "O=C(O)c1ccc(NC(=O)C(CC2CC2)c2ccc(-c3c(C(F)(F)F)ccc(Cl)c3F)c[n+]2[O-])cc1", "note": "(single isomer, unassigned) [Example 26, (S)- or (R)-2-(1-((4-carboxyphenyl)amino)-3-cyclopropyl-1-oxopropan-2-yl)-5-(3-chloro-2-fluoro-6-(trifluoromethyl)phenyl)pyridine 1-oxide]", "values": [{"measurement": "inhibition at 1 µM", "setting": "@ 1000 nM compound", "result": 39, "unit": "%"}, {"measurement": "IC50", "result": "> 1000", "unit": "nM"}]}, {"smiles": "O=C(O)c1ccc(NC(=O)C(CC2CC2)c2ccc(-c3cc(Cl)ccc3C(F)(F)F)c[n+]2[O-])cc1", "note": "(single isomer, unassigned) [Example 24, (S)- or (R)-2-(1-((4-carboxyphenyl)amino)-3-cyclopropyl-1-oxopropan-2-yl)-5-(5-chloro-2-(trifluoromethyl)phenyl)pyridine 1-oxide]", "values": [{"measurement": "inhibition at 1 µM", "setting": "@ 1000 nM compound", "result": 33, "unit": "%"}, {"measurement": "IC50", "result": "> 1000", "unit": "nM"}]}, {"smiles": "CC1CCC1CC(C(=O)Nc1ccc(C(=O)O)cc1)c1ccc(-c2c(OC(F)F)ccc(Cl)c2F)c[n+]1[O-]", "note": "(single isomer, unassigned) [Example 106, 2-(1-((4-carboxyphenyl)amino)-3-(2-methylcyclobutyl)-1-oxopropan-2-yl)-5-(3-chloro-6-(difluoromethoxy)-2-fluorophenyl)pyridine 1-oxide]", "values": [{"measurement": "IC50", "result": 3.79, "unit": "nM"}]}, {"smiles": "O=C(O)c1ccc(NC(=O)C(CC2CC2C(F)(F)F)c2ccc(-c3c(C(F)F)ccc(Cl)c3F)c[n+]2[O-])cc1", "note": "(single isomer, unassigned) [Example 86, 2-(1-((4-carboxyphenyl)amino)-1-oxo-3-(2-(trifluoromethyl)cyclopropyl)propan-2-yl)-5-(3-chloro-6-(difluoromethyl)-2-fluorophenyl)pyridine 1-oxide]", "values": [{"measurement": "IC50", "result": 93.6, "unit": "nM"}]}, {"smiles": "CC(C1CC1)C(C(=O)Nc1ccc(C(=O)O)cc1)c1ccc(-c2c(OC(F)F)ccc(Cl)c2F)c[n+]1[O-]", "note": "(single isomer, unassigned) [Example 60, 2-(1-((4-carboxyphenyl)amino)-3-cyclopropyl-1-oxobutan-2-yl)-5-(3-chloro-6-(difluoromethoxy)-2-fluorophenyl)pyridine 1-oxide]", "values": [{"measurement": "IC50", "result": 62, "unit": "nM"}]}, {"smiles": "O=C(O)c1ccc(NC(=O)[C@H](CC2CC2)c2ccc(-c3c(OC(F)F)ccc(Cl)c3F)c[n+]2[O-])cc1", "note": "(single isomer, unassigned) [Example 1]", "values": [{"measurement": "inhibition at 1 µM", "setting": "@ 1000 nM compound", "result": 47, "unit": "%"}]}, {"smiles": "CC1CC1C[C@H](C(=O)Nc1ccc(C(=O)O)cc1)c1ccc(-c2c(OC(F)F)ccc(Cl)c2F)c[n+]1[O-]", "note": "(single isomer, unassigned) [Example 53]", "values": [{"measurement": "IC50", "result": 155, "unit": "nM"}]}, {"smiles": "Cc1cc(C(CC2CC2)C(=O)Nc2ccc(C(=O)O)cc2)[n+]([O-])cc1-c1c(OC(F)F)ccc(Cl)c1F", "note": "[Example 66, (S)- and (R)-2-(1-((4-carboxyphenyl)amino)-3-cyclopropyl-1-oxopropan-2-yl)-5-(3-chloro-6-(difluoromethoxy)-2-fluorophenyl)-4-methylpyridine 1-oxide]", "values": [{"measurement": "inhibition at 1 µM", "setting": "@ 1000 nM compound", "result": 34, "unit": "%"}, {"measurement": "IC50", "result": "> 1000", "unit": "nM"}]}, {"smiles": "COC(=O)c1ccc(NC(=O)C(CC2CCC2)c2ccc(-c3c(C(F)F)ccc(Cl)c3F)c[n+]2[O-])cc1", "note": "(single isomer, unassigned) [Example 21, (R)- or (S)-methyl 4-[(2-{5-[3-chloro-6-(difluoromethyl)-2-fluorophenyl]-1-oxidopyridin-2-yl}-3-cyclobutylpropanoyl)amino]benzoate]", "values": [{"measurement": "IC50", "result": 83, "unit": "nM"}]}, {"smiles": "O=C(O)c1ccc(NC(=O)C(C[C@H]2CC[C@H](O)CC2)c2ccc(-c3c(C(F)F)ccc(Cl)c3F)c[n+]2[O-])cc1", "note": "(single isomer, unassigned) [Example 36, (S)- or (R)-2-(1-((4-carboxyphenyl)amino)-3-((1r,4r)-4-hydroxycyclohexyl)-1-oxopropan-2-yl)-5-(3-chloro-6-(difluoromethyl)-2-fluorophenyl)pyridine 1-oxide]", "values": [{"measurement": "IC50", "result": 26, "unit": "nM"}]}, {"smiles": "CC1CC1C[C@H](C(=O)Nc1ccc(C(=O)O)cc1)c1ccc(-c2c(OC(F)F)ccc(Cl)c2F)c[n+]1[O-]", "note": "(single isomer, unassigned) [Example 54]", "values": [{"measurement": "IC50", "result": 370, "unit": "nM"}]}]}
